Experimental data: the supplement of paper PMC11208160

assay: recombinant UMI read abundance after kanamycin selection (control-corrected) (log10(CPM+1)); higher = more efficient recombination; extreme values may be limits of the assay; sequences stand for … in AGTGCAGAGAAAATCGGCCAGTTTTCTCTGCCTGCAGTCCGCATGCCGTGGGACCCCTTGGGTTCTAACCTGTTGCCTAGATTTATGCAGCGGACTGCCTTTCTCCCAAAGTGATAAACCGG…AGGTTGGTTTCACT; site = the 11-nt donor
In short: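 In a pooled Escherichia coli screen for the IS621 bridge recombinase, donor and donor-binding-loop pairs were each placed with a 12-nt UMI on a plasmid bearing a promoterless kanamycin gene. This library was co-electroporated with a target plasmid encoding a fixed target and T7-inducible recombinase, and cells were plated either on IPTG (0.07 mM) plus kanamycin or without selection, in two replicates each. Recombinant UMIs were PCR-amplified across the donor–target junction and sequenced, and counts were converted to CPM, averaged over replicates, scaled by control-derived factors and reported as log10(CPM+1).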

Row | Sequence | recombinant UMI read abundance (log10)
1 | GCCCTTGCATGGACCGGTTTTCCCGGTAATCCGTATTTGAC (site GCCCTTGCTGT) | 1.06
2 | GCCGATGCATGGACCGGTTTTCCCGGTAATCCGTATTTGGA (site GCCGATGCTTC) | 1.45
3 | GCCGCGGCATGGACCGGTTTTCCCGGTAATCCGTATTTGGA (site GCCGCGGCTTC) | 0.468
4 | GCCTACACATGGACCGGTTTTCCCGGTAATCCGTATTTGTC (site GCCTACACTGA) | 1.8
5 | GCCTACCCATGGACCGGTTTTCCCGGTAATCCGTATTTGGC (site GCCTACCCTGC) | 0
6 | GCCTATGCATGGACCGGTTTTCCCGGTAATCCGTATTTGTC (site GCCTATGCTGA) | 1.57
7 | GCCTCGCCATGGACCGGTTTTCCCGGTAATCCGTATTTGCT (site GCCTCGCCTAG) | 0
8 | GCCTCGCCATGGACCGGTTTTCCCGGTAATCCGTATTTGTA (site GCCACGCCTTA) | 0.00387
9 | GCCTCGCCATGGACCGGTTTTCCCGGTAATCCGTATTTGTA (site GCCCCGCCTTA) | 0.633
10 | GCCTCGCCATGGACCGGTTTTCCCGGTAATCCGTATTTGTA (site GCCGCGCCTTA) | 0.00878
11 | GCCTCGCCATGGACCGGTTTTCCCGGTAATCCGTATTTGTA (site GCCTCGCCTTA) | 0.0151
12 | GCCTGAACATGGACCGGTTTTCCCGGTAATCCGTATTTGCA (site GCCTGAACTTG) | 2.12
13 | GCCTTATCATGGACCGGTTTTCCCGGTAATCCGTATTTGAA (site GCCTTATCTTT) | 0.731
14 | GCGAAAACATGGACCGGTTTTCCCGGTAATCCGTATTTGCG (site GCGAAAACTAG) | 0
15 | GCGAAAACATGGACCGGTTTTCCCGGTAATCCGTATTTGCG (site GCGAAAACTCG) | 2.63
16 | GCGAAAACATGGACCGGTTTTCCCGGTAATCCGTATTTGCG (site GCGAAAACTGG) | 0
17 | GCGAAAACATGGACCGGTTTTCCCGGTAATCCGTATTTGCG (site GCGAAAACTTG) | 0
18 | GCGAAAACATGGACCGGTTTTCCCGGTAATCCGTATTTGGT (site GCGAAAACTAA) | 0.0141
19 | GCGAAAACATGGACCGGTTTTCCCGGTAATCCGTATTTGGT (site GCGAAAACTAC) | 1.58
20 | GCGAAAACATGGACCGGTTTTCCCGGTAATCCGTATTTGGT (site GCGAAAACTAG) | 0
21 | GCGAAAACATGGACCGGTTTTCCCGGTAATCCGTATTTGGT (site GCGAAAACTAT) | 0
22 | GCGAAAGCATGGACCGGTTTTCCCGGTAATCCGTATTTGCT (site GCGAAAACTAG) | 0
23 | GCGAAAGCATGGACCGGTTTTCCCGGTAATCCGTATTTGCT (site GCGAAACCTAG) | 0

Row | Sequence | recombinant UMI read abundance (log10)
24 | GCGAAAGCATGGACCGGTTTTCCCGGTAATCCGTATTTGCT (site GCGAAAGCTAG) | 1.01
25 | GCGAAAGCATGGACCGGTTTTCCCGGTAATCCGTATTTGCT (site GCGAAATCTAG) | 0
26 | GCGAACACATGGACCGGTTTTCCCGGTAATCCGTATTTGCT (site GCGAAAACTAG) | 0
27 | GCGAACACATGGACCGGTTTTCCCGGTAATCCGTATTTGCT (site GCGAACACTAG) | 1.91
28 | GCGAACACATGGACCGGTTTTCCCGGTAATCCGTATTTGCT (site GCGAAGACTAG) | 0
29 | GCGAACACATGGACCGGTTTTCCCGGTAATCCGTATTTGCT (site GCGAATACTAG) | 0.025
30 | GCGAAGCCATGGACCGGTTTTCCCGGTAATCCGTATTTGTG (site GCGAAGCCTCA) | 0.643
31 | GCGAAGCCATGGACCGGTTTTCCCGGTAATCCGTATTTGTG (site GCGAAGCCTCC) | 0.021
32 | GCGAAGCCATGGACCGGTTTTCCCGGTAATCCGTATTTGTG (site GCGAAGCCTCG) | 0.0255
33 | GCGAAGCCATGGACCGGTTTTCCCGGTAATCCGTATTTGTG (site GCGAAGCCTCT) | 1.98
34 | GCGAAGCCATGGACCGGTTTTCCCGGTAATCCGTATTTGTT (site GCGAAGCCTAA) | 1.14
35 | GCGACAACATGGACCGGTTTTCCCGGTAATCCGTATTTGCT (site GCGAAAACTAG) | 0
36 | GCGACAACATGGACCGGTTTTCCCGGTAATCCGTATTTGCT (site GCGACAACTAG) | 1.97
37 | GCGACAACATGGACCGGTTTTCCCGGTAATCCGTATTTGCT (site GCGAGAACTAG) | 0
38 | GCGACAACATGGACCGGTTTTCCCGGTAATCCGTATTTGCT (site GCGATAACTAG) | 0.37
39 | GCGACAACATGGACCGGTTTTCCCGGTAATCCGTATTTGGT (site GCGACAACTAC) | 2.46
40 | GCGATTCCATGGACCGGTTTTCCCGGTAATCCGTATTTGTC (site GCGATTCCTGA) | 1.78
41 | GCGCAGCCATGGACCGGTTTTCCCGGTAATCCGTATTTGGG (site GCGAAGCCTCC) | 0.0174
42 | GCGCAGCCATGGACCGGTTTTCCCGGTAATCCGTATTTGGG (site GCGCAGCCTCC) | 0.00363
43 | GCGCAGCCATGGACCGGTTTTCCCGGTAATCCGTATTTGGG (site GCGGAGCCTCC) | 0.0138
44 | GCGCAGCCATGGACCGGTTTTCCCGGTAATCCGTATTTGGG (site GCGTAGCCTCC) | 0.0296
45 | GCGCCCTCATGGACCGGTTTTCCCGGTAATCCGTATTTGAC (site GCGCCCTCTGT) | 2.76
46 | GCGCCGGCATGGACCGGTTTTCCCGGTAATCCGTATTTGTG (site GCGCCGGCTCA) | 0.015

Row | Sequence | recombinant UMI read abundance (log10)
47 | GCGCTCTCATGGACCGGTTTTCCCGGTAATCCGTATTTGCT (site GCGCTCTCTAG) | 2.75
48 | GCGGAGTCATGGACCGGTTTTCCCGGTAATCCGTATTTGTT (site GCGGAGTCTAA) | 3.15
49 | GCGTATGCATGGACCGGTTTTCCCGGTAATCCGTATTTGTA (site GCGTATGCTTA) | 2.99
50 | GCGTGACCATGGACCGGTTTTCCCGGTAATCCGTATTTGCA (site GCGTGACCTTG) | 0.00644
51 | GCGTGGTCATGGACCGGTTTTCCCGGTAATCCGTATTTGGC (site GCGTGGTCTGC) | 2.06
52 | GCGTTGACATGGACCGGTTTTCCCGGTAATCCGTATTTGAG (site GCGTTGACTCT) | 1.98
53 | GCGTTGACATGGACCGGTTTTCCCGGTAATCCGTATTTGCA (site GCGTTGACTTG) | 2.59
54 | GCTAATGCATGGACCGGTTTTCCCGGTAATCCGTATTTGCC (site GCTAATGCTGG) | 0
55 | GCTAATGCATGGACCGGTTTTCCCGGTAATCCGTATTTGCC (site GCTACTGCTGG) | 0
56 | GCTAATGCATGGACCGGTTTTCCCGGTAATCCGTATTTGCC (site GCTAGTGCTGG) | 0
57 | GCTAATGCATGGACCGGTTTTCCCGGTAATCCGTATTTGCC (site GCTATTGCTGG) | 0
58 | GCTACCCCATGGACCGGTTTTCCCGGTAATCCGTATTTGTG (site GCTACCCCTCA) | 0.013
59 | GCTACCGCATGGACCGGTTTTCCCGGTAATCCGTATTTGCA (site GCTACCGCTTG) | 2.13
60 | GCTACCTCATGGACCGGTTTTCCCGGTAATCCGTATTTGCG (site GCTACCTCTCG) | 1.22
61 | GCTACGGCATGGACCGGTTTTCCCGGTAATCCGTATTTGCC (site GCTACAGCTGG) | 0
62 | GCTACGGCATGGACCGGTTTTCCCGGTAATCCGTATTTGCC (site GCTACCGCTGG) | 0
63 | GCTACGGCATGGACCGGTTTTCCCGGTAATCCGTATTTGCC (site GCTACGGCTGG) | 0.761
64 | GCTACGGCATGGACCGGTTTTCCCGGTAATCCGTATTTGCC (site GCTACTGCTGG) | 0
65 | GCTACTACATGGACCGGTTTTCCCGGTAATCCGTATTTGCC (site GCTACTACTGG) | 0
66 | GCTACTACATGGACCGGTTTTCCCGGTAATCCGTATTTGCC (site GCTACTCCTGG) | 0
67 | GCTACTACATGGACCGGTTTTCCCGGTAATCCGTATTTGCC (site GCTACTGCTGG) | 0
68 | GCTACTACATGGACCGGTTTTCCCGGTAATCCGTATTTGCC (site GCTACTTCTGG) | 0
